{
  "source": "patent US9575054B2",
  "about": "“Identification of antitumor compounds using placenta” (Anthrogenesis Corporation, priority 2013, dated 2017)",
  "type_in_all_cases": "cell-based, human",
  "key": {"[1]": {"system": "MDA-MB231/Luciferase cells", "experiment": "Luciferase activity (Xenogen IVIS) of MDA-MB231/Luciferase cells on DPVS", "details": "TSA 100 ng/mL, 24 hours, cells on DPVS in 6-well plates; untreated 25.63×10^6", "method": "Cells expressing luciferase were detected visually and quantitatively, using the Xenogen IVIS spectrum, by measuring Luciferase activity of the cells, which is indicative of cell number.\nTo examine the anti-cancer drug effect on cancer cells grown in DPVS, 1.5×10^5 MDA-MB231/Luciferase cells (a human breast cancer (adenocarcinoma) cell line that expresses luciferase; Cell Biolabs) were seeded onto DPVS in 6-well plates. One set of cells/DPVS was treated with Trichostatin A (TSA, 100 ng/mL) for 24 hours. Luciferase expression by the TSA-treated cells cultured on DPVS was compared with control cultures comprising cells/DPVS that were not treated with TSA. […] Thus, DPVS can be used to study the ability of cancer drugs, e.g., TSA, to affect cancer cell growth in a three-dimensional context."}, "[2]": {"system": "MDA-MB231/Luciferase positive cells", "experiment": "Luciferase expression (IVIS imaging) of MDA-MB231/Luciferase cells in placental cotyledon", "details": "TSA 100 ng/mL, 4 days in bioreactor, single cotyledon", "method": "MDA-MB231/Luciferase positive cells were infused into the vasculature of a single isolated cotyledon (40×10^6 cells/cotyledon). Trichostatin A (TSA, 100 ng/mL) was added to the growth medium (300 mL) and the cells were cultured for 4 days in a bioreactor. As a control, an equivalent number (40×10^6 cells/cotyledon) of MDA-MB231/Luc cells were infused into the vasculature of a single isolated cotyledon and cultured in growth medium only for 4 days in a bioreactor. After 4 days of culture, each cotyledon was transferred to growth medium comprising Luciferin (150 ng/mL) for 10 minutes. Both cotyledons then were analyzed using the IVIS imaging system."}, "HCT116 cells [3]": {"system": "HCT116 cells", "experiment": "MTS cell viability, HCT116 cells cultured in wells only", "details": "HCT116 alone, 48 hours, control 100.00%", "method": "(§1) Blocks of decellularized placental vascular scaffold (DPVS) in 24-well plates were seeded with HCT116 cells (1×10^5 cells/per well), a human colorectal cancer cell line. As a control, HCT116 cells were cultured in wells only, i.e., in the absence of DPVS. Trichostatin A (TSA), a drug contemplated for use in the treatment of cancer, was added to the DPVS/cells or cells alone at concentrations of 20 μM and 100 μM, or was not added at all (as a control). After 48 hours of culture, cell viability was measured by MTS assay. […] Thus, DPVS can be used a platform for assessing cancer cell killing by potential antitumor compounds."}, "HCT116 cells [4]": {"system": "HCT116 cells", "experiment": "MTS cell viability, HCT116 cells seeded on decellularized placental vascular scaffold (DPVS)", "details": "48 hours, control 100.00%", "method": "as §1"}, "[5]": {"system": "MDA-MB231/Luc and CRL1803-TT (thyroid tissue carcinoma) cells", "experiment": "MTS viable cell number of tumor cells in decellularized placental cotyledon (bioreactor)", "details": "TSA 100 ng/mL, 10 days in bioreactor, single cotyledon, FIG. 1A", "method": "(§2) Trichostatin A (TSA, 100 ng/mL) was added to the growth medium (300 mL) and the cells were cultured for 10 days in a bioreactor. As a control, MDA-MB231/Luc and CRL1803-TT were infused into the vasculature of a single isolated cotyledon (3×10^6 cells/cotyledon) and cultured in growth medium only for 10 days in a bioreactor.\n(§3) Culture medium was collected throughout the culture period and measured for Calcitonin levels by ELISA. In addition, at the end of the culture (day-10), the numbers of viable cells in both the TSA-treated and control cotyledons were determined by MTS assay."}, "[6]": {"system": "MDA-MB231/Luc and CRL1803-TT (thyroid tissue carcinoma) cells", "experiment": "Calcitonin ELISA of culture medium from tumor cells in placental cotyledon", "details": "TSA 100 ng/mL, 10-day culture, single cotyledon, FIG. 1B", "method": "as §2, §3"}},
  "data": [
    {"smiles": "CC(/C=C/C(=O)NO)=C\\[C@@H](C)C(=O)c1ccc(N(C)C)cc1", "note": "[TSA, Trichostatin A]", "values": [
      {"measurement": "luciferase signal", "setting": "[1]", "value": "8.22×10^6"},
      {"measurement": "luciferase expression vs cotyledon cultured in the absence of TSA", "setting": "[2]", "value": "marked decrease in luciferase expression"},
      {"measurement": "Cell viability (% of untreated control)", "setting": "HCT116 cells [3]; TSA 20 uM", "value": 11.21, "unit": "%"},
      {"measurement": "Cell viability (% of untreated control)", "setting": "HCT116 cells [3]; TSA 100 uM", "value": 10.36, "unit": "%"},
      {"measurement": "Cell viability (% of untreated control)", "setting": "HCT116 cells [4]; TSA 20 uM", "value": 97.00, "unit": "%"},
      {"measurement": "Cell viability (% of untreated control)", "setting": "HCT116 cells [4]; TSA 100 uM", "value": 73.32, "unit": "%"},
      {"measurement": "cell survival (viable cells by MTS) vs growth medium control", "setting": "[5]", "value": "reduced cell survival"},
      {"measurement": "Calcitonin production by the cells", "setting": "[6]", "value": "reduced"}
    ]}
  ]
}
